The compounds below were run against IDH1 R132H (Homo sapiens, UniProt O75874, R132H) (assay: Assay for IDH1 R132H inhibitors (NADPH/aKG, resazurin detection)). Settings: Table 3; enzyme assay, 50 minutes at room temperature; read-out: IC50 (IDH1 R132H Inhibition).
Assay type: biochemical
Procedure, shortened: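 Read-out is resorufin fluorescence (Ex544/Em590) 5 min after adding a 30 μM resazurin detection mix. Before that, mutant enzyme (0.2 μg/ml in its mix) ran 50 min at room temperature with compound, 8 uM NADPH and 2 mM aKG (mix levels) in Tris pH 7.5 with NaCl, MgCl2, BSA.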

Sequence of IDH1 R132H (O75874 whole entry R132H): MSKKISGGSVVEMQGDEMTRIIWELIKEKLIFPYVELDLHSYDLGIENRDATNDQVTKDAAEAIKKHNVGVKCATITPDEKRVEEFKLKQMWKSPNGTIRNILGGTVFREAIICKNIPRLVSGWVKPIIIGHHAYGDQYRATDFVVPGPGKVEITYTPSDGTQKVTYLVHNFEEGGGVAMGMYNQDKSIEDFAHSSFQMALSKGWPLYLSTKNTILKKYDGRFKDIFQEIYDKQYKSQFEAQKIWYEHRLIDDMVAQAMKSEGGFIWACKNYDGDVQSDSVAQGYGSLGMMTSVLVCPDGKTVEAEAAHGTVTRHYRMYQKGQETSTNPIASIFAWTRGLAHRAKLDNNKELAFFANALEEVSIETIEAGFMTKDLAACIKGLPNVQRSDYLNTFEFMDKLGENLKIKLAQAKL

IC50 [nM]	SMILES
1000 to 5000	C[C@@H]1CN(c2nc(C3CCCCC3)cc(-c3ccccc3)c2C#N)C[C@H](C)N1C(=O)c1ccoc1 [Compound 142, 6-cyclohexyl-2-((3S,5R)-4-(furan-3-carbonyl)-3,5-dimethylpiperazin-1-yl)-4-phenylnicotinonitrile]
1000 to 5000	COCCC(=O)N1CCN(c2nc(C(C)C)c(-c3ccc(OC)cc3)cc2C#N)C[C@H]1C [Compound 214, (R)-6-isopropyl-5-(4-methoxyphenyl)-2-(4-(3-methoxypropanoyl)-3-methylpiperazin-1-yl)nicotinonitrile]
1000 to 5000	COCCC(=O)N1CCN(c2nc(C3CC3)c(-c3cc4ccccc4s3)cc2C#N)C[C@H]1C [Compound 247, (R)-5-(benzo[b]thiophen-2-yl)-6-cyclopropyl-2-(4-(3-methoxypropanoyl)-3-methylpiperazin-1-yl)nicotinonitrile]
≤ 1000	COCCC(=O)N1CCN(c2nc(C3CC3)c(-c3ccc(C(F)(F)F)cc3)cc2C#N)C[C@H]1C [Compound 226, (R)-6-cyclopropyl-2-(4-(3-methoxypropanoyl)-3-methylpiperazin-1-yl)-5-(4-(trifluoromethyl)phenyl)nicotinonitrile]
≤ 1000	COCCC(=O)N1CCN(c2nc(C3CC3)c(-c3cccc(OC)c3)cc2C#N)C[C@H]1C [Compound 236, (R)-6-cyclopropyl-5-(3-methoxyphenyl)-2-(4-(3-methoxypropanoyl)-3-methylpiperazin-1-yl)nicotinonitrile]
5000 to 15000	CC(C)c1cc(-c2cccc(F)c2)c(C#N)c(N2CCN(C(=O)c3ccco3)C(C)C2)n1 (stereo not drawn) [Compound 127, 4-(3-fluorophenyl)-2-(4-(furan-2-carbonyl)-3-methylpiperazin-1-yl)-6-isopropylnicotinonitrile]
5000 to 15000	COc1ccccc1-c1cc(C(C)C)nc(N2CCN(C(=O)c3ccco3)CC2)c1C#N [Compound 104, 2-(4-(furan-2-carbonyl)piperazin-1-yl)-6-isopropyl-4-(2-methoxyphenyl)nicotinonitrile]
1000 to 5000	COc1ccccc1-c1cc(C(C)C)nc(N2CCN(C(=O)Cc3ccccc3)C(C)C2)c1C#N (stereo not drawn) [Compound 149]
≤ 1000	CC(C)c1nc(N2CCN(C(=O)c3ccoc3)[C@H](C)C2)c(C#N)cc1-c1ccc(C(F)(F)F)cc1 [Compound 187, (R)-2-(4-(furan-3-carbonyl)-3-methylpiperazin-1-yl)-6-isopropyl-5-(4-(trifluoromethyl)phenyl)nicotinonitrile]
1000 to 5000	COCCC(=O)N1CCN(c2nc(C(C)C)c(-c3ccc(C(F)(F)F)cc3)cc2C#N)C[C@H]1C(C)C [Compound 197, (R)-6-isopropyl-2-(3-isopropyl-4-(3-methoxypropanoyl)piperazin-1-yl)-5-(4-(trifluoromethyl)phenyl)nicotinonitrile]
1000 to 5000	CC(C)c1cc(-c2cccc(O)c2)c(C#N)c(N2CCN(C(=O)c3ccoc3)[C@H](C)C2)n1 [Compound 152, (R)-2-(4-(furan-3-carbonyl)-3-methylpiperazin-1-yl)-4-(3-hydroxyphenyl)-6-isopropylnicotinonitrile]
≤ 1000	COCCC(=O)N1CCN(c2nc(C3CC3)c(-c3cccc(OC)c3)c(C)c2C#N)C[C@H]1C [Compound 251, (R)-6-cyclopropyl-5-(3-methoxyphenyl)-2-(4-(3-methoxypropanoyl)-3-methylpiperazin-1-yl)-4-methylnicotinonitrile]
≤ 1000	COCCC(=O)N1CCN(c2nc(C3CC3)c(-c3ccc4ccccc4c3)c(C)c2C#N)C[C@H]1C [Compound 259, (R)-6-cyclopropyl-2-(4-(3-methoxypropanoyl)-3-methylpiperazin-1-yl)-4-methyl-5-(naphthalen-2-yl)nicotinonitrile]
1000 to 5000	CC(C)c1nc(N2CCN(C(=O)c3ccoc3)[C@H](C(C)C)C2)c(C#N)cc1-c1ccccc1 [Compound 170, (R)-2-(4-(furan-3-carbonyl)-3-isopropylpiperazin-1-yl)-6-isopropyl-5-phenylnicotinonitrile]
1000 to 5000	COCCC(=O)N1CCN(c2nc(-c3ccccc3)c(-c3ccccc3)cc2C#N)C[C@H]1C [Compound 240, (R)-2-(4-(3-methoxypropanoyl)-3-methylpiperazin-1-yl)-5,6-diphenylnicotinonitrile]
≤ 1000	COCCC(=O)N1CCN(c2nc(C3CC3)c(-c3ccsc3)cc2C#N)C[C@H]1C [Compound 246, (R)-6-cyclopropyl-2-(4-(3-methoxypropanoyl)-3-methylpiperazin-1-yl)-5-(thiophen-3-yl)nicotinonitrile]
1000 to 5000	CC(C)c1cc(-c2cccc(F)c2)c(C#N)c(N2CCN(C(=O)c3ccoc3)C(C)C2)n1 (stereo not drawn) [Compound 128, 4-(3-fluorophenyl)-2-(4-(furan-3-carbonyl)-3-methylpiperazin-1-yl)-6-isopropylnicotinonitrile]
≤ 1000	COCCC(=O)N1CCN(c2nc(C(C)C)c(-c3ccc4c(c3)OCO4)cc2C#N)C[C@H]1C [Compound 224, (R)-5-(benzo[d][1,3]dioxol-5-yl)-6-isopropyl-2-(4-(3-methoxypropanoyl)-3-methylpiperazin-1-yl)nicotinonitrile]
1000 to 5000	CC(C)c1nc(N2CCN(C(=O)Cc3ccccc3)C(C)C2)c(C#N)cc1-c1ccccc1 (stereo not drawn) [Compound 139, 6-isopropyl-2-(3-methyl-4-(2-phenylacetyl)piperazin-1-yl)-5-phenylnicotinonitrile]
≤ 1000	COCCC(=O)N1CCN(c2nc(C3CC3)c(-c3ccc(OC(F)(F)F)cc3)c(C)c2C#N)C[C@H]1C [Compound 255, (R)-6-cyclopropyl-2-(4-(3-methoxypropanoyl)-3-methylpiperazin-1-yl)-4-methyl-5-(4-(trifluoromethoxy)-phenyl)nicotinonitrile]
1000 to 5000	COCCC(=O)N1CCN(c2nc(C(C)C)c(-c3cccc(F)c3)cc2C#N)C[C@H]1C [Compound 231, (R)-5-(3-fluorophenyl)-6-isopropyl-2-(4-(3-methoxypropanoyl)-3-methylpiperazin-1-yl)nicotinonitrile]

Same assay, conditions: enzyme assay of Example 12; read-out: IDH1R132H IC50

IC50 [nM]	SMILES
< 500	N#Cc1cncc(-c2cc(C#N)c(N3CCN(C(=O)C4CC4)[C@H](C4CC4)C3)nc2C2CC2)c1 [Compound 494, (R)-6-(4-(cyclopropanecarbonyl)-3-cyclopropylpiperazin-1-yl)-2-cyclopropyl-[3,3′-bipyridine]-5,5′-dicarbonitrile]
< 500	COCCC(=O)N1CCN(c2nc(C3CC3)c(-c3cccc(F)c3F)c(C)c2C#N)C[C@H]1C [Compound 405, (R)-6-cyclopropyl-5-(2,3-difluoro-phenyl)-2-[4-(3-methoxy-propionyl)-3-methyl-piperazin-1-yl]-4-methyl-nicotinonitrile]
< 500	COCCC(=O)N1CCN(c2nc(C3CC3)c(-c3cccnc3OC)cc2C#N)C[C@H]1C [Compound 328, (R)-2-cyclopropyl-2′-methoxy-6-[4-(3-methoxy-propionyl)-3-methyl-piperazin-1-yl]-[3,3]bipyridinyl-5-carbonitrile]
500 to 1000	CS(=O)(=O)n1cc(-c2cc(C#N)c(N3CCN(C(=O)C4CC4)[C@H](C4CC4)C3)nc2C2CC2)cn1 [Compound 502, (R)-2-(4-(cyclopropanecarbonyl)-3-cyclopropylpiperazin-1-yl)-6-cyclopropyl-5-(1-(methylsulfonyl)-1H-pyrazol-4-yl)nicotinonitrile]
500 to 1000	COCCC(=O)N1CCN(c2nc(C3CC3)c(-c3ccccc3CO)cc2C#N)C[C@H]1C [Compound 344, (R)-6-cyclopropyl-5-(2-hydroxymethyl-phenyl)-2-[4-(3-methoxy-propionyl)-3-methyl-piperazin-1-yl]-nicotinonitrile]
500 to 1000	N#Cc1cc(-c2ccc(C(F)(F)F)nc2)c(C2CC2)nc1N1CCN(C(=O)C2CC2)[C@H](C2CC2)C1 [Compound 567, (R)-6-(4-(cyclopropanecarbonyl)-3-cyclopropylpiperazin-1-yl)-2-cyclopropyl-6′-(trifluoromethyl)-[3,3′-bipyridine]-5-carbonitrile]
1000 to 10000	N#Cc1cc(Cc2ccnc(Cl)c2)c(C2CC2)nc1N1CCN(C(=O)C2CC2)[C@H](C2CC2)C1 [Compound 685, (R)-5-((2-chloropyridin-4-yl)methyl)-2-(4-(cyclopropanecarbonyl)-3-cyclopropylpiperazin-1-yl)-6-cyclopropylnicotinonitrile]
500 to 1000	N#Cc1cc(-c2ccc3c(c2)C(=O)C(=O)N3)c(C2CC2)nc1N1CCN(C(=O)C2CC2)[C@H](C2CC2)C1 [Compound 504, (R)-2-(4-(cyclopropanecarbonyl)-3-cyclopropylpiperazin-1-yl)-6-cyclopropyl-5-(2,3-dioxoindolin-5-yl)nicotinonitrile]
500 to 1000	COCCC(=O)N1CCN(c2nc(C3CC3)c(-c3cccc(C(N)=O)c3)cc2C#N)C[C@H]1C [Compound 305, (R)-3-(5-cyano-2-cyclopropyl-6-(4-(3-methoxypropanoyl)-3-methylpiperazin-1-yl)pyridin-3-yl)benzamide]
< 500	COCCC(=O)N1CCN(c2nc(C3CC3)c(-c3ccc(N4CCNCC4)nc3)cc2C#N)C[C@H]1C [Compound 396, (R)-2-cyclopropyl-6-[4-(3-methoxy-propionyl)-3-methyl-piperazin-1-yl]-6′-piperazin-1-yl-[3,3′]bipyridinyl-5-carbonitrile]
500 to 1000	COCCC(=O)N1CCN(c2nc(C3CC3)c(OCc3ccc(OC)cc3)cc2C#N)C[C@H]1C [Compound 281, (R)-6-cyclopropyl-5-(4-methoxybenzyloxy)-2-(4-(3-methoxypropanoyl)-3-methylpiperazin-1-yl)nicotinonitrile]
500 to 1000	COCCC(=O)N1CCN(c2nc(C3CC3)c(Nc3cnc4ccccc4c3)cc2C#N)C[C@H]1C [Compound 339, (R)-6-cyclopropyl-2-(4-(3-methoxypropanoyl)-3-methylpiperazin-1-yl)-5-(quinolin-3-ylamino)nicotinonitrile]
